Measured values: patent US9611267B2, “Substituted tricyclic compounds as FGFR inhibitors” (Incyte Corporation, priority 2012, dated 2017)
pIC50: −log10 of the molar value.

Columns and labels:
Type in all cases: biochemical
FGFR2 = FGFR2 (Homo sapiens (Human), UniProt P21802); test: FGFR enzymatic assay (FRET peptide phosphorylation), FGFR2; conditions: FGFR2 enzyme 0.01 nM, ATP 100 μM
In short: (§1)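 Recombinant kinase was pre-incubated 5–10 min with serially diluted inhibitor in HEPES buffer (10 mM MgCl2, 5 mM DTT, pH 7.5; buffer described for FGFR3). Peptide phosphorylation ran 1 h at 25 °C and was detected by FRET after ~1 h equilibration. IC50 values come from variable-slope sigmoidal fits.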

FGFR3 = FGFR3 (Homo sapiens (Human), UniProt P22607); test: FGFR enzymatic assay (FRET peptide phosphorylation), FGFR3; conditions: FGFR3 enzyme (Millipore), ATP 140 μM
In short: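 FRET assay of peptide phosphorylation by FGFR3 in HEPES pH 7.5 buffer with MgCl2, EGTA, Tween-20 and DTT. Enzyme was pre-incubated 5-10 min with compound, and the reaction ran 1 hr at 25° C. IC50 came from a variable-slope sigmoidal fit.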

FGFR1 = FGFR1 (Homo sapiens (Human), UniProt P11362); test: FGFR enzymatic assay (FRET peptide phosphorylation), FGFR1; conditions: FGFR1 enzyme 0.02 nM, ATP 210 μM
In short: as §1

Measured: pIC50

Chain of FGFR3 (P22607 23-806): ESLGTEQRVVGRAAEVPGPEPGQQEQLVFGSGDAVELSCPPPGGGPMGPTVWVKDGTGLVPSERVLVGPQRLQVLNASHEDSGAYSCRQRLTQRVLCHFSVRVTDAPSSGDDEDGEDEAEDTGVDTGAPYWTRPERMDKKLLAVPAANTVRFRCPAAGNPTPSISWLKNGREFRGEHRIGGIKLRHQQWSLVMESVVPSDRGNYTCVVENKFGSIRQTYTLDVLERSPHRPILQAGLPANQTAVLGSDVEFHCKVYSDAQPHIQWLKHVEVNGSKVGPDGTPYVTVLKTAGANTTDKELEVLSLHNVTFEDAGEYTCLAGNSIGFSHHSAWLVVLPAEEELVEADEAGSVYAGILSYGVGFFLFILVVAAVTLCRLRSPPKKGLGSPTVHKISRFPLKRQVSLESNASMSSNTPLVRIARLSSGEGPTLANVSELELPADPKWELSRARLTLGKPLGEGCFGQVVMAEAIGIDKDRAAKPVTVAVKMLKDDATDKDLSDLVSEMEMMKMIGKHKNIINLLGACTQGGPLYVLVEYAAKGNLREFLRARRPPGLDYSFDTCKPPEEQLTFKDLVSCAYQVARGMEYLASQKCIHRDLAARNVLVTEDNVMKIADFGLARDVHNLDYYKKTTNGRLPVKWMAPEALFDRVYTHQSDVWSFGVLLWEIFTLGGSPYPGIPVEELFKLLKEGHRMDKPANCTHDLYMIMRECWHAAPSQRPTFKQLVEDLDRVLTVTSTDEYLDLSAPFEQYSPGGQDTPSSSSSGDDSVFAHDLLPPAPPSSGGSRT
Chain of FGFR1 (P11362 22-822): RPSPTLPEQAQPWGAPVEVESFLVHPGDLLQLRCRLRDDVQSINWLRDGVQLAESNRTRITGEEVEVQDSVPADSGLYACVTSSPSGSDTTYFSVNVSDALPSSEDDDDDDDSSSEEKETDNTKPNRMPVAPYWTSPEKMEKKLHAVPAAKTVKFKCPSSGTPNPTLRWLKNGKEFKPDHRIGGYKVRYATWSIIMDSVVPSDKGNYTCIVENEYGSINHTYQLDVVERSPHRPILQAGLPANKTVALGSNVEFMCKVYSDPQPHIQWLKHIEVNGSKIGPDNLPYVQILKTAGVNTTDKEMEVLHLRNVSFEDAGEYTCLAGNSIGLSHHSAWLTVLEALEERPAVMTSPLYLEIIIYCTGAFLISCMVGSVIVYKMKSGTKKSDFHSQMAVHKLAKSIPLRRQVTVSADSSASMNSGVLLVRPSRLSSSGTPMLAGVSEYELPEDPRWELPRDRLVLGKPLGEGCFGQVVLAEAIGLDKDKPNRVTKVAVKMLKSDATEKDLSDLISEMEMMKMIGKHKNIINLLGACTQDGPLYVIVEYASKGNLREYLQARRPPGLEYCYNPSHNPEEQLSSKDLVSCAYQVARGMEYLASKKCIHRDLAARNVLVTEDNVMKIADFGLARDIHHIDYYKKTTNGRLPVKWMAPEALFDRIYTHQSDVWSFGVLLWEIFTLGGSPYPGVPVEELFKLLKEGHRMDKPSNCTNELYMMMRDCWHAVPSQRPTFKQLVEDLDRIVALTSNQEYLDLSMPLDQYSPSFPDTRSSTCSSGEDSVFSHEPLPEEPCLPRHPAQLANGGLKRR
Chain of FGFR2 (P21802 22-821): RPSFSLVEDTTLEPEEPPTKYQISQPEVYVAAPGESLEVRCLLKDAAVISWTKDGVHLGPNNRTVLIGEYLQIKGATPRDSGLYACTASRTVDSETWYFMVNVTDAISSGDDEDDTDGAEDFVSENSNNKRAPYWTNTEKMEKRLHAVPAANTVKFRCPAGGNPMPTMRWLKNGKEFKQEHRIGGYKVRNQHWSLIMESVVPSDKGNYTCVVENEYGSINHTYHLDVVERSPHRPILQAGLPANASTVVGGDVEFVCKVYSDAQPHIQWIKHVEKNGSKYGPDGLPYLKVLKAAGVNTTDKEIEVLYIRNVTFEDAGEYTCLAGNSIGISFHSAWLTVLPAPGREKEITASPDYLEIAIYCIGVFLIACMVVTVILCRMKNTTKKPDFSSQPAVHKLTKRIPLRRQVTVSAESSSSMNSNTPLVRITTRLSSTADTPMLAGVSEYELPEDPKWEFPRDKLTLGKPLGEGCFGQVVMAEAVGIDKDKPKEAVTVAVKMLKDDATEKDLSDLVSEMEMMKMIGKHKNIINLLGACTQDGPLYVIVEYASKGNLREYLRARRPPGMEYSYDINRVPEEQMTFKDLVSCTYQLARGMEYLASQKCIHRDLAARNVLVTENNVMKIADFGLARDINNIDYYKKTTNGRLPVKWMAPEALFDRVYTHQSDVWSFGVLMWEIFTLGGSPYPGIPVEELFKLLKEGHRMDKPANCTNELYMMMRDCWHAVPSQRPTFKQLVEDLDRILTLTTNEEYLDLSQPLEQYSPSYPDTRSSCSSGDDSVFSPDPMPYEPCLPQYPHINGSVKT

COc1cc(OC)c(F)c(N2Cc3cnc4[nH]c(CN5CCC(C#N)CC5)cc4c3C(C)(C)C2=O)c1F [Example 155, 1-{[7-(2,6-difluoro-3,5-dimethoxyphenyl)-9,9-dimethyl-8-oxo-6,7,8,9-tetrahydro-3H-pyrrolo[2,3-c]-2,7-naphthyridin-2-yl]methyl}piperidine-4-carbonitrile]
> 7.00: all assays above

COc1cc(OC)c(F)c(N2Cc3cnc4[nH]c(CN5CC[C@H](N(C)C)C5)cc4c3C(C)(C)C2=O)c1F [Example 156, 7-(2,6-difluoro-3,5-dimethoxyphenyl)-2-{[(3S)-3-(dimethylamino)pyrrolidin-1-yl]methyl}-9,9-dimethyl-3,6,7,9-tetrahydro-8H-pyrrolo[2,3-c]-2,7-naphthyridin-8-one]
> 7.00: all assays above

COc1cc(OC)c(F)c(N2Cc3cnc4[nH]c(CN5CC[C@@H](N(C)C)C5)cc4c3C(C)(C)C2=O)c1F [Example 157, 7-(2,6-difluoro-3,5-dimethoxyphenyl)-2-{[(3R)-3-(dimethylamino)pyrrolidin-1-yl]methyl}-9,9-dimethyl-3,6,7,9-tetrahydro-8H-pyrrolo[2,3-c]-2,7-naphthyridin-8-one]
> 7.00: all assays above

COc1cc(OC)c(F)c(N2Cc3cnc4[nH]c(CCN5CCOCC5)cc4c3C(C)(C)C2=O)c1F [Example 158, 7-(2,6-difluoro-3,5-dimethoxyphenyl)-9,9-dimethyl-2-(2-morpholin-4-ylethyl)-3,6,7,9-tetrahydro-8H-pyrrolo[2,3-c]-2,7-naphthyridin-8-one]
> 7.00: all assays above

CCN1CCN(CCc2cc3c4c(cnc3[nH]2)CN(c2c(F)c(OC)cc(OC)c2F)C(=O)C4(C)C)CC1 [Example 159, 7-(2,6-difluoro-3,5-dimethoxyphenyl)-2-[2-(4-ethylpiperazin-1-yl)ethyl]-9,9-dimethyl-3,6,7,9-tetrahydro-8H-pyrrolo[2,3-c]-2,7-naphthyridin-8-one]
> 7.00: all assays above

COc1cc(OC)c(F)c(N2Cc3cnc4[nH]c(CCN5CCN(C)CC5)cc4c3C(C)(C)C2=O)c1F [Example 160, 7-(2,6-difluoro-3,5-dimethoxyphenyl)-9,9-dimethyl-2-[2-(4-methylpiperazin-1-yl)ethyl]-3,6,7,9-tetrahydro-8H-pyrrolo[2,3-c]-2,7-naphthyridin-8-one]
> 7.00: all assays above

COc1cc(OC)c(F)c(N2Cc3cnc4[nH]ncc4c3N(Cc3cocn3)C2=O)c1F [Example 161, 3-(2,6-Difluoro-3,5-dimethoxyphenyl)-1-(1,3-oxazol-4-ylmethyl)-1,3,4,7-tetrahydro-2H-pyrazolo[4′,3′:5,6]pyrido[4,3-d]pyrimidin-2-one]
> 7.00: all assays above

COc1cc(OC)c(F)c(N2Cc3cnc4[nH]ncc4c3N(Cc3ccon3)C2=O)c1F [Example 162, 3-(2,6-Difluoro-3,5-dimethoxyphenyl)-1-(isoxazol-3-ylmethyl)-1,3,4,7-tetrahydro-2H-pyrazolo[4′,3′:5,6]pyrido[4,3-d]pyrimidin-2-one]
> 7.00: all assays above

COc1cc(OC)c(F)c(N2Cc3cnc4[nH]ncc4c3N(Cc3cscn3)C2=O)c1F [Example 163, 3-(2,6-Difluoro-3,5-dimethoxyphenyl)-1-(1,3-thiazol-4-ylmethyl)-1,3,4,7-tetrahydro-2H-pyrazolo[4′,3′:5,6]pyrido[4,3-d]pyrimidin-2-one]
> 7.00: all assays above

COc1cc(OC)c(F)c(N2Cc3cnc4[nH]ncc4c3N(c3ccccc3OC(F)F)C2=O)c1F [Example 164, 3-(2,6-Difluoro-3,5-dimethoxyphenyl)-1-[2-(difluoromethoxy)phenyl]-1,3,4,7-tetrahydro-2H-pyrazolo[4′,3′:5,6]pyrido[4,3-d]pyrimidin-2-one]
> 7.00: all assays above

COc1cc(OC)c(F)c(N2Cc3cnc4[nH]ncc4c3N(CCn3cccn3)C2=O)c1F [Example 165, 3-(2,6-Difluoro-3,5-dimethoxyphenyl)-1-[2-(1H-pyrazol-1-yl)ethyl]-1,3,4,7-tetrahydro-2H-pyrazolo[4′,3′:5,6]pyrido[4,3-d]pyrimidin-2-one]
> 7.00: all assays above

COc1cc(OC)c(F)c(N2Cc3cnc4[nH]ncc4c3N(C[C@H]3CCCO3)C2=O)c1F [Example 166, 3-(2,6-Difluoro-3,5-dimethoxyphenyl)-1-[(2R)-tetrahydrofuran-2-ylmethyl]-1,3,4,7-tetrahydro-2H-pyrazolo[4′,3′:5,6]pyrido[4,3-d]pyrimidin-2-one]
> 7.00: all assays above

COc1cc(OC)c(F)c(N2Cc3cnc4[nH]ncc4c3N(C[C@@H]3CCCO3)C2=O)c1F [Example 167, 3-(2,6-Difluoro-3,5-dimethoxyphenyl)-1-[(2S)-tetrahydrofuran-2-ylmethyl]-1,3,4,7-tetrahydro-2H-pyrazolo[4′,3′:5,6]pyrido[4,3-d]pyrimidin-2-one]
> 7.00: all assays above

COc1cc(OC)c(F)c(N2Cc3cnc4[nH]ncc4c3N(CCc3cnccn3)C2=O)c1F [Example 168, 3-(2,6-Difluoro-3,5-dimethoxyphenyl)-1-(2-pyrazin-2-ylethyl)-1,3,4,7-tetrahydro-2H-pyrazolo[4′,3′:5,6]pyrido[4,3-d]pyrimidin-2-one]
> 7.00: all assays above

COc1cc(OC)c(F)c(N2Cc3cnc4[nH]ncc4c3N(CCc3ccccn3)C2=O)c1F [Example 169, 3-(2,6-Difluoro-3,5-dimethoxyphenyl)-1-(2-pyridin-2-ylethyl)-1,3,4,7-tetrahydro-2H-pyrazolo[4′,3′:5,6]pyrido[4,3-d]pyrimidin-2-one]
> 7.00: all assays above

COc1cc(OC)c(F)c(N2Cc3cnc4[nH]ncc4c3N(CCc3cccnc3)C2=O)c1F [Example 170, 3-(2,6-Difluoro-3,5-dimethoxyphenyl)-1-(2-pyridin-3-ylethyl)-1,3,4,7-tetrahydro-2H-pyrazolo[4′,3′:5,6]pyrido[4,3-d]pyrimidin-2-one]
> 7.00: all assays above

COc1cc(OC)c(F)c(N2Cc3cnc4[nH]ncc4c3N(CCc3ccncc3)C2=O)c1F [Example 171, 3-(2,6-Difluoro-3,5-dimethoxyphenyl)-1-(2-pyridin-4-ylethyl)-1,3,4,7-tetrahydro-2H-pyrazolo[4′,3′:5,6]pyrido[4,3-d]pyrimidin-2-one]
> 7.00: all assays above

CCn1cc(N2C(=O)N(c3c(F)c(OC)cc(OC)c3F)Cc3cnc4[nH]ncc4c32)cn1 [Example 172, 3-(2,6-difluoro-3,5-dimethoxyphenyl)-1-(1-ethyl-1H-pyrazol-4-yl)-1,3,4,7-tetrahydro-2H-pyrazolo[4′,3′:5,6]pyrido[4,3-d]pyrimidin-2-one]
> 7.00: all assays above

COc1cc(OC)c(F)c(N2Cc3cnc4[nH]ncc4c3N(c3cnn(CC(C)(C)O)c3)C2=O)c1F [Example 173, 3-(2,6-difluoro-3,5-dimethoxyphenyl)-1-[1-(2-hydroxy-2-methylpropyl)-1H-pyrazol-4-yl]-1,3,4,7-tetrahydro-2H-pyrazolo[4′,3′:5,6]pyrido[4,3-d]pyrimidin-2-one]
> 7.00: all assays above

COCCn1cc(N2C(=O)N(c3c(F)c(OC)cc(OC)c3F)Cc3cnc4[nH]ncc4c32)cn1 [Example 174, 3-(2,6-difluoro-3,5-dimethoxyphenyl)-1-[1-(2-methoxyethyl)-1H-pyrazol-4-yl]-1,3,4,7-tetrahydro-2H-pyrazolo[4′,3′:5,6]pyrido[4,3-d]pyrimidin-2-one]
> 7.00: all assays above

COc1cc(OC)c(F)c(N2Cc3cnc4[nH]ncc4c3N(c3cnn(CC(F)F)c3)C2=O)c1F [Example 175, 3-(2,6-difluoro-3,5-dimethoxyphenyl)-1-[1-(2,2-difluoroethyl)-1H-pyrazol-4-yl]-1,3,4,7-tetrahydro-2H-pyrazolo[4′,3′:5,6]pyrido[4,3-d]pyrimidin-2-one]
> 7.00: all assays above

COc1cccc(CN2C(=O)N(c3c(F)c(OC)cc(OC)c3F)Cc3cnc4[nH]ncc4c32)n1 [Example 176, 3-(2,6-difluoro-3,5-dimethoxyphenyl)-1-[(6-methoxypyridin-2-yl)methyl]-1,3,4,7-tetrahydro-2H-pyrazolo[4′,3′:5,6]pyrido[4,3-d]pyrimidin-2-one]
> 7.00: all assays above

COc1cc(CN2C(=O)N(c3c(F)c(OC)cc(OC)c3F)Cc3cnc4[nH]ncc4c32)ccn1 [Example 177, 3-(2,6-difluoro-3,5-dimethoxyphenyl)-1-[(2-methoxypyridin-4-yl)methyl]-1,3,4,7-tetrahydro-2H-pyrazolo[4′,3′:5,6]pyrido[4,3-d]pyrimidin-2-one]
> 7.00: all assays above

COc1cc(OC)c(F)c(N2Cc3cnc4[nH]ncc4c3N(C[C@H]3CCOC3)C2=O)c1F [Example 178, 3-(2,6-difluoro-3,5-dimethoxyphenyl)-1-[(3R)-tetrahydrofuran-3-ylmethyl]-1,3,4,7-tetrahydro-2H-pyrazolo[4′,3′:5,6]pyrido[4,3-d]pyrimidin-2-one]
> 7.00: all assays above
